From patent US20060194860A1, “Pharmaceutical compositions containing aryl or heteroaryl azolylcarbinol compounds” (GRUENENTHAL GMBH, priority 2003, published 2006)

Target: T1, 5-HT reuptake (Homo sapiens, UniProt P31645)
T1 construct: in a system with neurological tissue under physiological conditions; from tissue
Experiment: Functional measurement of the 5-HT uptake / inhibition of serotonin uptake (tritium-marked 5-HT, neurological tissue)
Format: biochemical
Conditions: uptake of tritium-marked 5-HT in neurological tissue under physiological conditions; three independent tests
Source text: Functional Measurement of the 5-HT-Uptake or the Inhibition of Serotonin Uptake
The uptake of tritium-marked 5-HT (serotonin) as a function of the concentration of the added substance 5-{α-[2-(methylamino)ethoxy]benzyl}-1-methyl-1H-pyrazole in a system with neurological tissue under physiological conditions.

T1 sequence (P31645 whole entry): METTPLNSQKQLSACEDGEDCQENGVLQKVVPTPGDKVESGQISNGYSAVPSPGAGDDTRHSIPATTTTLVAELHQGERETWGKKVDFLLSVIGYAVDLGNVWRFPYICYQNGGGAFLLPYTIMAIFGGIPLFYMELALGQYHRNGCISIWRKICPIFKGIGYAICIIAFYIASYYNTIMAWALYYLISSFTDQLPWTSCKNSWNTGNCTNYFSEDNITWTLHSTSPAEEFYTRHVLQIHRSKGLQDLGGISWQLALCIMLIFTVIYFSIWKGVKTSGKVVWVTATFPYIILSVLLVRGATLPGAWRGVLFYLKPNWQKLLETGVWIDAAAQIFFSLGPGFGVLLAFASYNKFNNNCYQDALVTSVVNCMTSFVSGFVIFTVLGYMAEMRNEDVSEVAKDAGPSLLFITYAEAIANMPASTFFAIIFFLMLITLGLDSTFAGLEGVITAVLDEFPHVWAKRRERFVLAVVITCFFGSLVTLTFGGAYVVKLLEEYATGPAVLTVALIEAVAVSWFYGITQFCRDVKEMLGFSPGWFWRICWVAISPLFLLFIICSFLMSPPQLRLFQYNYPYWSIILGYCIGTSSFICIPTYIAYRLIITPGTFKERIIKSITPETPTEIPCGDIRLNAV

Ki: 530 ± 100 nM
Compound: CNCCOC(c1ccccc1)c1ccnn1C (stereo not drawn) [5-{α-[2-(methylamino)ethoxy]benzyl}-1-methyl-1H-pyrazole]
